Assay results as given in US20010014462A1, “Direct cholesterol esterase assay” (priority 1997, published 2001).
Like-named read-outs stand apart in the source and are kept apart here.

How the values were obtained:
[1] = system: cholesterol esterase (EC3.1.1.13); assay: Microtiter chromogenic detection of cholesterol esterase (Example 7); format: biochemical; conditions: for Substrate preference: BCI-substrates tested; for Reaction (colour, time to detection): cholesterol esterase (0.05 U)
esterase (EC 3.1.1.1) = assay: Microtitre chromogenic detection of esterase, de-ionized H2O (Examples 2 and 3); format: biochemical; conditions: for Substrate preference / Speed of chromogenic reactions relative to other BCI substrates: esterase; for Substrate preference: BCI-substrates tested; for Speed of chromogenic reactions relative to other BCI substrates: similar concentration of substrates and enzymes; for Reaction (colour, time to detection): 1 unit esterase, de-ionized H2O
Experimental: 10 μl of esterase (1 unit) was added to substrate samples B, B′, C, C′, D, D′, and E, E′.
Five test samples were prepared.

[2] = system: beta-glucosidase (EC 3.2.1.21); conditions: 0.5 units glucosidase
Experimental: The experimental results for Experiments 1-12 are described by the color change of the experimental solution. These colors result from the interaction of the enzyme and substrate with the transfer of an electron to a tetrazolium salt. The reactive product, formazan, is detected as dark blue, black. […] The reaction detected required the enzyme, substrate and tetrazolium salt.
Five test samples were prepared. The samples A, B, C, D, E contained the following reactants:
10 μl of H2O was added to substrate sample A to serve as a control. 10 μl of β-glucosidase (0.5 units) was added to substrate samples B, C, D and E.

[3] = system: B-glucuronidase (EC 3.2.1.31); conditions: PBS pH 5.0
Experimental: (§3) These colors result from the interaction of the enzyme and substrate with the transfer of an electron to a tetrazolium salt. The reactive product, formazan, is detected as dark blue, black. The BCI substrate without MTT is pale blue. PMS and MTT alone are yellow. PMS and BCI is yellow+blue which is green.
Four test samples were prepared. The samples A, B, C, D contained the following reactants:
10 μl of H2O was added to substrate sample A to serve as a control. 10 μl of β-glucuronidase (10 units) was added to substrate samples B, C, and D.

esterase (EC3.1.1.1) = assay: Microtiter chromogenic detection of esterase, PBS pH 7.4 (Example 1); format: biochemical; conditions: 1 unit esterase, visual
Experimental: (§1) The BCI substrate without MTT is pale blue. PMS and MTT alone are yellow. PMS and BCI is yellow+blue which is green.
Four test samples were prepared.

[4] = system: esterase activity in elastase preparation; assay: Esterase activity and/or contamination in commercial elastase preparation (Example 5); format: biochemical
Experimental: (§2) Elastase was serially diluted twofold to signal extinction with elastase substrate. The last dilution yielding robust signal was incubated with the competitive inhibitor elastatinal for 10 minutes—with subsequent addition of esterase substrates.

[5] = system: Beta-N-acetylglucosaminidase (EC 3.2.1.30); assay: Microtitre chromogenic detection of Beta-N-acetylglucosaminidase (Example 12); format: biochemical; conditions: Beta-N-acetylglucoaminidase 0.125 units
Excerpt: as §1

[6] = system: neuraminidase (EC 3.2.1.18); assay: Microtitre chromogenic detection of neuraminidase (Example 11); format: biochemical; conditions: neuraminidase 0.1 units
Experimental: as §3
10 μl of H2O was added to substrate sample A as the substrate control. 10 μl of neuraminidase (0.1 units) was added to substrate samples B, C, D and E.

[7] = target: chloramphenicol acetyltransferase (EC 2.3.1.28) (Escherichia coli, UniProt P62577); assay: Microtitre chromogenic detection of chloramphenicol acetyltransferase (Example 10); format: biochemical; conditions: Chloramphenicol acetyl transferase 5U/10 μl
Excerpt: In a preferred assay of the invention, the enzyme chloramphenicol acetyl transferase (CAT enzyme) reacts with chloramphenicol and […] in the presence of the indicator dimethylthiazol tetrazolium (MTT) and phenazine methosulfate (PMS). The MTT serves as a hydrogen acceptor in the reaction. The reaction can be written as:
CAT+chloramphenicol+acyl coA→CAT-chloramphenicol-CoA CAT-chloramphenicol-CoA+PMS→CAT+PMS.H2+acyl-chloramphenicol+HS-CoA PMS-H2+MTT→formazan+PMS.
as §1
Chloramphenicol acetyl transferase (5U/10 μl) was added to each substrate combination.

elastase (EC 3.4.21.36) = target: T1, elastase (EC 3.4.21.36) (Sus scrofa, UniProt P00772); assay: Elastase with elastase substrate, with or without elastatinal (Example 5); format: biochemical
T1 construct: purchased Sigma lot # 17H8005
Experimental: as §2

[8] = system: cholesterol oxidase (EC1.1.3.6); assay: Microtitre chromogenic detection of cholesterol oxidase (Example 8); format: biochemical; conditions: Cholesterol Oxidase 25 U/ml
Excerpt: as §1

[9] = substrate 5 mg/ml + H2O, PMS (no MTT)
[10] = substrate 5 mg/ml + MTT, H2O (no PMS)
[11] = substrate 5 mg/ml alone (no MTT, no PMS)
[12] = substrate alone (no MTT, no PMS)
[13] = substrate 12.5 mg/ml + H2O, PMS (no MTT)
[14] = substrate 12.5 mg/ml + MTT, H2O (no PMS)
[15] = substrate 12.5 mg/ml + MTT, PMS

Chain of chloramphenicol acetyltransferase (EC 2.3.1.28) (P62577 whole entry, looked up): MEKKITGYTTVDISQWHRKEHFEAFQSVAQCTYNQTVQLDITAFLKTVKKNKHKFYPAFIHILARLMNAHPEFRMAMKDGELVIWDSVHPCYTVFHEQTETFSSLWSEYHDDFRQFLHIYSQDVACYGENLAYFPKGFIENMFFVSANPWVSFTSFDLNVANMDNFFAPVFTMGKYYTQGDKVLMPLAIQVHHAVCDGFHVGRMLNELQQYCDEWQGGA
T1 sequence (P00772 27-266): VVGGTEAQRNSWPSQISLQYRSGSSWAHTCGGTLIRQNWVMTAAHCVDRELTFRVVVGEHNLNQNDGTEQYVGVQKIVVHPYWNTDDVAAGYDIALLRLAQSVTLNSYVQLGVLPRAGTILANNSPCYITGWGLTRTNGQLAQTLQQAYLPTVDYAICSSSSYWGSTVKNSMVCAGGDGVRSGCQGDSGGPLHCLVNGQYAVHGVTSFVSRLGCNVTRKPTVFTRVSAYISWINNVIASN

Compound: 5-Bromo-4-chloro-3-indolyl 1,3 diacetate [BCI-1,3 diacetate]
- Substrate preference ([1]; cholesterol esterase): BCI-acetate>BCI-butyrate> BCI-1,3 diacetate
- Substrate preference (esterase (EC 3.1.1.1)): BCI-acetate>BCI-butyrate> BCI-1,3 diacetate
- Speed of chromogenic reactions relative to other BCI substrates (esterase (EC 3.1.1.1)): much slower than the corresponding BCI-acetate and slower than the BCI-butyrate reactions
- Reaction (colour, time to detection) (esterase (EC 3.1.1.1); [9]): yellow-blue
- Reaction (colour, time to detection) (esterase (EC 3.1.1.1); [10]): dark blue (>1 hour)
- Reaction (colour, time to detection) (esterase (EC 3.1.1.1); substrate 5 mg/ml + MTT, PMS): dark blue (>40 minutes)
- Reaction (colour, time to detection) (esterase (EC 3.1.1.1); [11]): pale faint blue

Compound: 5-Bromo-4-chloro-3-indolyl-B-D-glucoside [BCI-glucoside]
- Reaction (colour, time to detection) [2, 9]: yellow-blue - slight change
- Reaction (colour, time to detection) [2, 10]: dark blue (<5 minutes)
- Reaction (colour, time to detection) ([2]; substrate 5 mg/ml + MTT, PMS): dark blue (<5 minutes)
- Reaction (colour, time to detection) [2, 11]: pale blue (>10 minutes)

Compound: 5-Bromo-4-chloro-3-indolyl-B-D-glucuronide [BCI glucuronide]
- Reaction (colour, time to detection) ([3]; substrate 10 mg/ml + MTT, H2O (no PMS), 10 units glucuronidase): dark blue (<5 minutes)
- Reaction (colour, time to detection) ([3]; substrate + H2O (no MTT, no PMS), glucuronidase): pale blue (after 5 minutes)
- Reaction (colour, time to detection) ([3]; substrate + H2O, PMS (no MTT), 10 units glucuronidase): yellow-blue - slight change
- Reaction (colour, time to detection) ([3]; substrate + MTT, PMS, 10 units glucuronidase): dark blue (<5 minutes)

Compound: CC(=O)Oc1c[nH]c2ccc(Br)c(Cl)c12 [BCI-acetate, 5-Bromo-4-chloro-3-indolyl acetate]
- Substrate preference ([1]; cholesterol esterase): BCI-acetate>BCI-butyrate> BCI-1,3 diacetate
- Reaction (colour, time to detection) ([1]; substrate + H2O, PMS (no MTT)): yellow-blue (<30 see)
- Reaction (colour, time to detection) ([1]; substrate + MTT, H2O (no PMS)): dark blue (<10 sec)
- Reaction (colour, time to detection) ([1]; substrate + MTT, PMS): dark blue (instant detection)
- Reaction (colour, time to detection) [1, 12]: pale blue (>10 minutes)
- Reaction (colour, time to detection) (esterase (EC3.1.1.1); [13]): yellow-blue - slight change
- Reaction (colour, time to detection) (esterase (EC3.1.1.1); [14]): dark blue < 10 seconds)
- Reaction (colour, time to detection) (esterase (EC3.1.1.1); [15]): dark blue (instantaneous)
- Substrate preference (esterase (EC 3.1.1.1)): BCI-acetate>BCI-butyrate> BCI-1,3 diacetate
- Reaction (colour, time to detection) (esterase (EC 3.1.1.1); [9]): yellow-blue (<30 sec)
- Reaction (colour, time to detection) (esterase (EC 3.1.1.1); [10]): dark blue (<10 sec)
- Reaction (colour, time to detection) (esterase (EC 3.1.1.1); substrate 5 mg/ml + MTT, PMS): dark blue (instant detection)
- Reaction (colour, time to detection) (esterase (EC 3.1.1.1); [11]): pale blue (>10 minutes)
- Reaction with elastase preparation, no inhibitor ([4]; Elastase + H2O, MTT, PMS, BCI-acetate): dark blue (<5 minutes)

Compound: CC(=O)N[C@H]1[C@H](Oc2c[nH]c3ccc(Br)c(Cl)c23)O[C@H](CO)[C@@H](O)[C@@H]1O [BCI-acetylglucosaminide]
- Reaction (colour, time to detection) [5, 13]: green
- Reaction (colour, time to detection) [5, 14]: light blue formazan reaction
- Reaction (colour, time to detection) [5, 15]: dark blue(<2 minutes)
- Reaction (colour, time to detection) ([5]; substrate 12.5 mg/ml alone (no MTT, no PMS)): light blue (>5 minutes)

Compound: CC(=O)N[C@H]1[C@H]([C@H](O)[C@H](O)CO)O[C@@](Oc2c[nH]c3ccc(Br)c(Cl)c23)(C(=O)O)C[C@@H]1O [BCI-acetylneuraminic acid, 5-bromo-4-chloro-3-indolyl acetyl neuraminic acid]
- Reaction (colour, time to detection) ([6]; substrate + H2O, PMS (no MTT)): green
- Reaction (colour, time to detection) ([6]; substrate + MTT, H2O (no PMS)): light blue formazan reaction
- Reaction (colour, time to detection) ([6]; substrate + MTT, PMS): dark blue (>5 minutes)
- Reaction (colour, time to detection) ([6]; substrate in H2O (no MTT, no PMS)): pale blue (<2 minutes)

Compound: CCCC(=O)Oc1c[nH]c2ccc(Br)c(Cl)c12 [BCI-butyrate, 5-Bromo-4-chloro-3-indolyl-butyrate]
- Substrate preference ([1]; cholesterol esterase): BCI-acetate>BCI-butyrate> BCI-1,3 diacetate
- Speed of chromogenic reactions relative to other BCI substrates ([1]; cholesterol esterase, similar concentration of substrates and enzymes): much slower than the corresponding BCI-acetate reactions
- Reaction (colour, time to detection) ([1]; substrate + H2O, PMS (no MTT)): yellow-blue (<30 minutes)
- Reaction (colour, time to detection) ([1]; substrate + MTT, H2O (no PMS)): dark blue (<30 minutes)
- Reaction (colour, time to detection) ([1]; substrate + MTT, PMS): dark blue (<20 minutes)
- Reaction (colour, time to detection) [1, 12]: pale blue (>1 hour)
- Substrate preference (esterase (EC 3.1.1.1)): BCI-acetate>BCI-butyrate> BCI-1,3 diacetate
- Speed of chromogenic reactions relative to other BCI substrates (esterase (EC 3.1.1.1)): much slower than the corresponding BCI-acetate reactions
- Reaction (colour, time to detection) (esterase (EC 3.1.1.1); [9]): yellow-blue (<30 minutes)
- Reaction (colour, time to detection) (esterase (EC 3.1.1.1); [10]): dark blue (<30 minutes)
- Reaction (colour, time to detection) (esterase (EC 3.1.1.1); substrate 5 mg/ml + MTT, PMS): dark blue (<20 minutes)
- Reaction (colour, time to detection) (esterase (EC 3.1.1.1); [11]): pale blue (>1 hour)

Compound: O=C(N[C@H](CO)[C@H](O)c1ccc([N+](=O)[O-])cc1)C(Cl)Cl [Chloramphenicol]
- Reaction (colour, time to detection) ([7]; Acetyl CoA + H2O, PMS (no MTT)): orange - red (<2 minutes)
- Reaction (colour, time to detection) ([7]; Acetyl CoA + MTT, H2O (no PMS)): orange detection (>5 minutes)
- Reaction (colour, time to detection) ([7]; Acetyl CoA + MTT, PMS): yellow

Compound: C[C@H](NC(=O)CCC(=O)O)C(=O)N[C@@H](C)C(=O)N[C@@H](C)C(=O)Nc1ccc([N+](=O)[O-])cc1 [Elastase substrate, N-succinyl-ALA-ALA-ALA p nitroanilide]
- Reaction with elastase, no inhibitor (elastase (EC 3.4.21.36); Elastase + H2O, elastase substrate): yellow

Compound: CC(C)C[C@H](NC(=O)N[C@H](C(=O)N[C@@H](CCC(N)=O)C(=O)N[C@@H](C)C=O)[C@@H]1CCNC(=N)N1)C(=O)O [Elastatinal]
- Reaction with elastase substrate after incubation with inhibitor (elastase (EC 3.4.21.36); Elastase + Inhibitor, incubated 10 minutes, elastase substrate N-succinyl-ALA-ALA-ALA p nitroanilide): clear (no color >10 min.)
- Reaction with MTT, PMS, BCI-acetate after incubation with inhibitor ([4]; Elastase + Inhibitor, incubated 10 minutes): dark blue (<5 minutes)

Compound: CC(C)CCC[C@@H](C)[C@H]1CC[C@H]2[C@@H]3CC=C4C[C@@H](O)CC[C@]4(C)[C@H]3CC[C@]12C [cholesterol]
- Reaction (colour, time to detection) ([8]; Cholesterol Std 50 mg/dl + H2O, PMS (no MTT)): yellow, no color change
- Reaction (colour, time to detection) ([8]; Cholesterol Std 50 mg/dl + MTT, H2O (no PMS)): yellow, no color change
- Reaction (colour, time to detection) ([8]; Cholesterol Std 50 mg/dl + MTT, PMS): dark blue(<1 minutes)
- Reaction (colour, time to detection) ([8]; Cholesterol Std 50 mg/dl in H2O (no MTT, no PMS)): clear, no color change
